Reference: patent US20150272939A1, “Identification of Small Molecule Inhibitors of Jumonji AT-Rich Interactive Domain 1A (JARID1A) and 1B (JARID1B) Histone Demethylase” (Yale University, priority 2012, published 2015)
Like-named read-outs stand apart in the source and are kept apart here.

Tests used:
JARID1B = biological target: T1, JARID1B (Homo sapiens, UniProt Q9UGL1); assay: FLAG-JARID1B histone demethylase assay with AlphaScreen detection (HTS and dose response); format: biochemical; settings: for inhibition at 20 µM: read-out: Inhibitory effect (percent);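 for Assay Signal (percent): compound tested at 20 µM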;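 for Assay − Artifact Signal (percent): compound tested at 20 µM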;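 for all read-outs here: FLAG-tagged JARID1B at 4 nM acting on a biotinylated H3K4me3 peptide, demethylation read by AlphaScreen luminescence, with hits checked against bio-H3K4me2 without enzyme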
T1 construct: The FLAG tagged full length JARID1B enzyme was expressed in Sf21 insect cells using FLAG-JARID1B baculoviruses; FLAG (N); made in house; host or cells: Sf21 insect cells (baculovirus)
T1 sequence (Q9UGL1 whole entry): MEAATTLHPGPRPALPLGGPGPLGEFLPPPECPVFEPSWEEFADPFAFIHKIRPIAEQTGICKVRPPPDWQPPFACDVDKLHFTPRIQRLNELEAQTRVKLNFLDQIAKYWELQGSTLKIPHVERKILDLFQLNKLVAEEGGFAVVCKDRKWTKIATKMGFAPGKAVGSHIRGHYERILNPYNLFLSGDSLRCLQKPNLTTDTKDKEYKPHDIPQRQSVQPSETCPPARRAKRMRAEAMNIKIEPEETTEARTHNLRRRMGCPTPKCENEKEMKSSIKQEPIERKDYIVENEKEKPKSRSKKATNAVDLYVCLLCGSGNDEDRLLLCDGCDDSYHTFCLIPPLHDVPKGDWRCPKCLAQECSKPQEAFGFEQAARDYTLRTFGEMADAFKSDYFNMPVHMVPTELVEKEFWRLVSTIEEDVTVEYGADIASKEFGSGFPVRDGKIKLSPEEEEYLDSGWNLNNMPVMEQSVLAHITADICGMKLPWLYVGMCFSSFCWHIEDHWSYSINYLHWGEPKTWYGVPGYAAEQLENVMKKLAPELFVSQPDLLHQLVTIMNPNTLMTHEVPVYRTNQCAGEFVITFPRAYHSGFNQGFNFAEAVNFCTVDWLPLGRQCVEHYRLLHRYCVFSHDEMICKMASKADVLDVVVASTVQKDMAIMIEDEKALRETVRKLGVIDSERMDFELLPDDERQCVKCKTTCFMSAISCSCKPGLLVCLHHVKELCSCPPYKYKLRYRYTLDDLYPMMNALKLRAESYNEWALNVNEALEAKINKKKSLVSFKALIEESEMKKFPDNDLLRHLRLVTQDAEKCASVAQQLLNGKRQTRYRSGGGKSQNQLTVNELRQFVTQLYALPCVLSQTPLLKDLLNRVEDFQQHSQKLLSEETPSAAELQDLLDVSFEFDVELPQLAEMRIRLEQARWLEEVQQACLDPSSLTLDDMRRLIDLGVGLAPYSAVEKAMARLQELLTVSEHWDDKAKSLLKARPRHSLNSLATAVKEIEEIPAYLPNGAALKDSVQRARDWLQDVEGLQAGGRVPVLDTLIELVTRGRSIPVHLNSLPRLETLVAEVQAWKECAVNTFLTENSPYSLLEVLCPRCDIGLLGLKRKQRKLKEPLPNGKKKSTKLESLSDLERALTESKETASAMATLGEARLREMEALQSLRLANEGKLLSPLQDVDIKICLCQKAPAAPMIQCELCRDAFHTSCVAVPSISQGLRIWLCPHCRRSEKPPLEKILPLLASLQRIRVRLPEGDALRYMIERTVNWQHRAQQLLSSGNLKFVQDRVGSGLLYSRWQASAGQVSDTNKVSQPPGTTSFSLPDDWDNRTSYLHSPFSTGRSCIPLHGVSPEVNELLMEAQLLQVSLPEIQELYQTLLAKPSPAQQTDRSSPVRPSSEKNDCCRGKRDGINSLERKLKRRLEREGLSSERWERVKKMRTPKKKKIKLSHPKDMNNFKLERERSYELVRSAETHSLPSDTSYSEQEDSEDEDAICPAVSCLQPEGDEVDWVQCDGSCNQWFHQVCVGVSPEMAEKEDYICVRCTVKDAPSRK

[1] = AlphaScreen counterscreen against bio-H3K4me2 peptide in the absence of enzyme (artifact signal); settings: for Artifact signal: effect of the compound when it is incubated with bio-H3K4me2 peptide: counterscreen, no enzyme; for Artifact Signal (percent): effect of the compound when incubated with bio-H3K4me2 peptide (counterscreen, no enzyme);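 for all read-outs here: counterscreen run without enzyme against bio-H3K4me2 peptide to remove false positive hits from the JARID1 demethylase AlphaScreen screen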
[2] = high-throughput screen, compound 20 μM, standard demethylase conditions (10 μM α-KG, 50 μM Fe (II))
[3] = validation of HTS actives, total signal before subtraction of artifact signal
[4] = assay signal minus artifact signal
[5] = validation of HTS actives, effect of compound in JARID1B AlphaScreen assay

CCOC(=O)c1ccc(NC(c2cccnc2)c2ccc3cccnc3c2O)cc1 (centres unmarked) [YU172168]
inhibition at 20 µM (JARID1B; [2]): 37.1%
Validation result of HTS active: effect of the compound in the JARID1B AlphaScreen demethylase assay (JARID1B; [3]): 44.99
Artifact signal: effect of the compound when it is incubated with bio-H3K4me2 peptide [1]: 37.50

Cc1cccc(NC(c2cccnc2)c2ccc3cccnc3c2O)c1 (centres unmarked) [YU172169]
Assay − Artifact Signal (percent) (JARID1B; [4]): 11.78%
inhibition at 20 µM (JARID1B; [2]): 72.7%
Assay Signal (percent) (JARID1B; [5]): 73.22%
Artifact Signal (percent) [1]: 61.44%

Cc1cccc(NC(c2ccncc2)c2ccc3cccnc3c2O)c1 (centres unmarked) [YU172170]
Assay − Artifact Signal (percent) (JARID1B; [4]): 16.90%
inhibition at 20 µM (JARID1B; [2]): 70%
Assay Signal (percent) (JARID1B; [5]): 65.09%
Artifact Signal (percent) [1]: 48.19%

COC(=O)c1cccc(NC(c2cccnc2)c2ccc3cccnc3c2O)c1 (centres unmarked) [YU172172]
inhibition at 20 µM (JARID1B; [2]): 60.1%
Validation result of HTS active: effect of the compound in the JARID1B AlphaScreen demethylase assay (JARID1B; [3]): 63.48
Artifact signal: effect of the compound when it is incubated with bio-H3K4me2 peptide [1]: 56.78

Cc1ccc(NC(c2cccnc2)c2ccc3cccnc3c2O)cc1C (centres unmarked) [YU172173]
inhibition at 20 µM (JARID1B; [2]): 40%
Validation result of HTS active: effect of the compound in the JARID1B AlphaScreen demethylase assay (JARID1B; [3]): 44.79
Artifact signal: effect of the compound when it is incubated with bio-H3K4me2 peptide [1]: 37.31

COc1ccc(C)cc1NC(c1cccnc1)c1ccc2cccnc2c1O (centres unmarked) [YU172175]
Assay − Artifact Signal (percent) (JARID1B; [4]): 11.16%
inhibition at 20 µM (JARID1B; [2]): 48.5%
Assay Signal (percent) (JARID1B; [5]): 48.09%
Artifact Signal (percent) [1]: 36.93%

Cc1cccc(NC(c2ccccn2)c2ccc3cccnc3c2O)n1 (centres unmarked) [YU172178]
Assay − Artifact Signal (percent) (JARID1B; [4]): 8.53%
inhibition at 20 µM (JARID1B; [2]): 72.3%
Assay Signal (percent) (JARID1B; [5]): 46.45%
Artifact Signal (percent) [1]: 37.93%

Cc1cccc(NC(c2cccnc2)c2ccc3cccnc3c2O)n1 (centres unmarked) [YU172179]
Assay − Artifact Signal (percent) (JARID1B; [4]): 10.43%
inhibition at 20 µM (JARID1B; [2]): 58.1%
Assay Signal (percent) (JARID1B; [5]): 63.74%
Artifact Signal (percent) [1]: 53.31%

Cc1[nH]c2nc(C(F)(F)F)nn2c(=O)c1C [YU172199]
Assay − Artifact Signal (percent) (JARID1B; [4]): 42.72%
inhibition at 20 µM (JARID1B; [2]): 62.4%
Assay Signal (percent) (JARID1B; [5]): 38.73%
Artifact Signal (percent) [1]: −4.00%

c1ccc(-c2nc3ccccn3c2Nc2ccc3c(c2)OCCO3)nc1 [YU172999]
Assay − Artifact Signal (percent) (JARID1B; [4]): 88.40%
inhibition at 20 µM (JARID1B; [2]): 96.7%
Assay Signal (percent) (JARID1B; [5]): 98.42%
Artifact Signal (percent) [1]: 10.03%

Clc1ccc2nc(-c3ccccn3)c(Nc3ccc4c(c3)OCO4)n2c1 [YU173003]
Assay − Artifact Signal (percent) (JARID1B; [4]): 37.18%
inhibition at 20 µM (JARID1B; [2]): 83.1%
Assay Signal (percent) (JARID1B; [5]): 42.73%
Artifact Signal (percent) [1]: 3.56%

Clc1ccc2nc(-c3ccccn3)c(Nc3ccc4c(c3)OCCO4)n2c1 [YU173004]
Assay − Artifact Signal (percent) (JARID1B; [4]): 48.80%
inhibition at 20 µM (JARID1B; [2]): 94%
Assay Signal (percent) (JARID1B; [5]): 49.67%
Artifact Signal (percent) [1]: 0.87%

Cc1noc2c1C(c1ccc(O)c(O)c1)C1=C(CCCC1=O)N2 (centres unmarked) [YU183529]
Assay − Artifact Signal (percent) (JARID1B; [4]): 36.06%
Assay Signal (percent) (JARID1B; [5]): 40.22%
Artifact Signal (percent) [1]: 4.16%

Cc1noc2c1C(c1ccc(O)c(O)c1)C1=C(CC(C)(C)CC1=O)N2 (centres unmarked) [YU185530]
Assay − Artifact Signal (percent) (JARID1B; [4]): 36.51%
inhibition at 20 µM (JARID1B; [2]): 46.5%
Assay Signal (percent) (JARID1B; [5]): 38.23%
Artifact Signal (percent) [1]: 1.72%

CCC(=O)Nc1ccc(N2CCC(C(N)=O)(N3CCCCC3)CC2)c(C(=O)O)c1 [YU208193]
Assay − Artifact Signal (percent) (JARID1B; [4]): 11.50%
inhibition at 20 µM (JARID1B; [2]): 46.1%
Assay Signal (percent) (JARID1B; [5]): 27.63%
Artifact Signal (percent) [1]: 16.13%

CCCCC(=O)Nc1ccc(N2CCC(C(N)=O)(N3CCCCC3)CC2)c(C(=O)O)c1 [YU208194]
inhibition at 20 µM (JARID1B; [2]): 63.8%
Validation result of HTS active: effect of the compound in the JARID1B AlphaScreen demethylase assay (JARID1B; [3]): 17.11
Artifact signal: effect of the compound when it is incubated with bio-H3K4me2 peptide [1]: 11.63

CC(=O)Nc1ccc(N2CCC(C(N)=O)(N3CCCCC3)CC2)c(C(=O)O)c1 [YU208195]
inhibition at 20 µM (JARID1B; [2]): 52.9%
Validation result of HTS active: effect of the compound in the JARID1B AlphaScreen demethylase assay (JARID1B; [3]): 14.20
Artifact signal: effect of the compound when it is incubated with bio-H3K4me2 peptide [1]: 8.81

CCC(=O)Nc1ccc(N2CCCC2)c(C(=O)O)c1 [YU208199]
Assay − Artifact Signal (percent) (JARID1B; [4]): 17.19%
inhibition at 20 µM (JARID1B; [2]): 63.4%
Assay Signal (percent) (JARID1B; [5]): 50.16%
Artifact Signal (percent) [1]: 32.96%

O=C(Nc1ccc(N2CCCC2)c(C(=O)O)c1)c1ccc(Br)cc1 [YU208200]
inhibition at 20 µM (JARID1B; [2]): 53%
Validation result of HTS active: effect of the compound in the JARID1B AlphaScreen demethylase assay (JARID1B; [3]): 24.86
Artifact signal: effect of the compound when it is incubated with bio-H3K4me2 peptide [1]: 20.10

O=C(Nc1ccc(N2Cc3ccccc3OC(c3ccccc3)C2)c(C(=O)O)c1)c1ccccc1F (centres unmarked) [YU208213]
Validation result of HTS active: effect of the compound in the JARID1B AlphaScreen demethylase assay (JARID1B; [3]): 37.72
Artifact signal: effect of the compound when it is incubated with bio-H3K4me2 peptide [1]: 32.32

CCC(=O)Nc1ccc(N(C)CCCc2c(C)nn(C)c2C)c(C(=O)O)c1 [YU208228]
inhibition at 20 µM (JARID1B; [2]): 43.4%
Validation result of HTS active: effect of the compound in the JARID1B AlphaScreen demethylase assay (JARID1B; [3]): 24.80
Artifact signal: effect of the compound when it is incubated with bio-H3K4me2 peptide [1]: 20.21

CC(=O)Nc1ccc(N(C)CCCc2c(C)nn(C)c2C)c(C(=O)O)c1 [YU208230]
inhibition at 20 µM (JARID1B; [2]): 38.5%
Validation result of HTS active: effect of the compound in the JARID1B AlphaScreen demethylase assay (JARID1B; [3]): 24.45
Artifact signal: effect of the compound when it is incubated with bio-H3K4me2 peptide [1]: 17.72

CCCCC(=O)Nc1ccc(N(C)CCc2c(C)nn(C)c2C)c(C(=O)O)c1 [YU208232]
Assay − Artifact Signal (percent) (JARID1B; [4]): 19.26%
inhibition at 20 µM (JARID1B; [2]): 50.5%
Assay Signal (percent) (JARID1B; [5]): 37.92%
Artifact Signal (percent) [1]: 18.67%

O=C(Nc1ccc(N2CCC(c3ccccc3)C2)c(C(=O)O)c1)c1cccc(Cl)c1 (centres unmarked) [YU208239]
Assay − Artifact Signal (percent) (JARID1B; [4]): 9.53%
inhibition at 20 µM (JARID1B; [2]): 50.2%
Assay Signal (percent) (JARID1B; [5]): 36.49%
Artifact Signal (percent) [1]: 26.96%

Cc1ccc(C(=O)Nc2cnc(N3CCN(c4ccccc4Cl)CC3)c(C(=O)O)c2)cc1 [YU208246]
Assay − Artifact Signal (percent) (JARID1B; [4]): 10.41%
inhibition at 20 µM (JARID1B; [2]): 44.5%
Assay Signal (percent) (JARID1B; [5]): 10.32%
Artifact Signal (percent) [1]: −0.08%

O=C(Nc1cnc(N2CCN(c3ccccc3Cl)CC2)c(C(=O)O)c1)c1ccc(F)cc1 [YU208247]
inhibition at 20 µM (JARID1B; [2]): 51.5%
Validation result of HTS active: effect of the compound in the JARID1B AlphaScreen demethylase assay (JARID1B; [3]): 7.92
Artifact signal: effect of the compound when it is incubated with bio-H3K4me2 peptide [1]: 0.47

CCC(=O)Nc1cnc(N2CCN(c3ccc(Cl)cc3)CC2)c(C(=O)O)c1 [YU208250]
Assay − Artifact Signal (percent) (JARID1B; [4]): 14.69%
inhibition at 20 µM (JARID1B; [2]): 44.5%
Assay Signal (percent) (JARID1B; [5]): 21.70%
Artifact Signal (percent) [1]: 7.01%

O=c1c(O[C@@H]2O[C@H](CO)[C@@H](O)[C@H](O)[C@H]2O)c(-c2ccc(O)c(O)c2)oc2cc(O)cc(O)c12 [YU221011, Isoquercitrin, reference compound]
Assay − Artifact Signal (percent) (JARID1B; [4]): 36.99%
inhibition at 20 µM (JARID1B; [2]): 45.1%
Assay Signal (percent) (JARID1B; [5]): 52.16%
Artifact Signal (percent) [1]: 15.17%

O=c1c(O[C@@H]2O[C@H](CO)[C@H](O)[C@H](O)[C@H]2O)c(-c2ccc(O)c(O)c2)oc2cc(O)cc(O)c12 [YU221013, HYPEROSIDE, reference compound]
Assay − Artifact Signal (percent) (JARID1B; [4]): 41.83%
inhibition at 20 µM (JARID1B; [2]): 44.9%
Assay Signal (percent) (JARID1B; [5]): 51.29%
Artifact Signal (percent) [1]: 9.46%

CCC1=C[C@H]2CN(C1)Cc1c([nH]c3ccccc13)[C@@](C(=O)OC)(c1cc3c(cc1OC)N(C)[C@H]1[C@@](O)(C(=O)OC)[C@H](OC(C)=O)[C@]4(CC)C=CC[N@]5CC[C@]31[C@@H]54)C2.O=C(O)C(O)C(O)C(=O)O [YU221030, V[…], reference compound]
Assay Signal (percent) (JARID1B): 38.77%
Assay − Artifact Signal (percent) (JARID1B): 20.64%
inhibition at 20 µM (JARID1B): 42.2%
Artifact Signal (percent) [1]: 18.13%

CC[C@]1(O)C[C@H]2CN(CCc3c([nH]c4ccccc34)[C@@](C(=O)OC)(c3cc4c(cc3OC)N(C=O)[C@H]3[C@@](O)(C(=O)OC)[C@H](OC(C)=O)[C@]5(CC)C=CCN6CC[C@]43[C@@H]65)C2)C1.O=S(=O)(O)O [YU221071, VINCRISTINE SULFATE, reference compound]
Inhibitory effect (percent) (JARID1B): 44.20%
Validation effect minus artifact signal (JARID1B): 1.86
Validation result of HTS active: effect of the compound in the JARID1B AlphaScreen demethylase assay (JARID1B): 0.59
Artifact signal: effect of the compound when it is incubated with bio-H3K4me2 peptide [1]: −1.27

O=C1C=CC(=O)[C@@H](Br)[C@@H]1Br [YU221139]
Assay − Artifact Signal (percent) (JARID1B; [4]): 23.33%
inhibition at 20 µM (JARID1B; [2]): 58.7%
Assay Signal (percent) (JARID1B; [5]): 30.40%
Artifact Signal (percent) [1]: 7.07%
